Experimental data as given in patent US20260297106A1, “SPIROCYCLIC SUBSTITUTED OXOISOINDOLINYL PIPERIDINE-2,6-DIONE COMPOUND” (Bristol-Myers Squibb Company, priority 2023, published 2026).

Legend:
[1] = target: IKZF1 Ikaros (Homo sapiens, UniProt Q13422+Q96SW2); assay: Human Regulatory T Cell Degradation Assay (IKZF1 Ikaros); type: cell-based; design: Cryopreserved healthy donor human peripheral blood mononuclear cells; endogenous in cells; host or cells: primary human PBMC, CD8+ T cells read by flow cytometry; conditions: human regulatory T cells, 20 hours, 100% = no detectable protein remaining, read-out: IKZF1 Ikaros max % deg. observed
Protocol: Cryopreserved human regulatory T cells were thawed in RPMI+10% FBS+20 ng/mL IL-2. After being spun at 1200 rpm for 5 mins, the cells were resuspended in RPMI+10% FBS+20 ng/ml and rested at 37° C. with 5% CO2 for 3 hours. The cells were then plated at 40,000 cells/well in 40 μL RPMI+10% FBS+20 ng/ml human IL~2 in a 384 well cell culture plate prior to using acoustic dispensing technology (ECHO 555) for adding compounds of interest. Cell cultures were incubated for 20 hours at 37° C. and 5% CO2. In order to facilitate analysis, cell cultures were spun down at 1200 rpm for 5 minutes and the supernatant was discarded using an EL406 plate washer. After washing three times with 70 μL PBS, cell pellets were resuspended in 50 μL of near IR viability staining solution (Life Technologies, Cat #L34975) and incubated for 30 minutes on ice protected from light. Cells were washed three times with 70 μL PBS+0.5% BSA using an EL406 plate washer. After shaking the plate to dislodge the cell pellet, cells were resuspended in 50 μL of Fixation Buffer (eBioScience FoxP3 buffer set 00-5523-00) for 60 minutes at room temperature. After centrifuging and discarding the supernatant, cells were permeabilized with 50 μL of permeabilization buffer (eBioScience FoxP3 buffer set 00-5523-00) for 10 minutes at room temperature. Following permeabilization, cells were spun down and the supernatant was replaced with 30 μL fluorescently labelled antibodies against the intracellular targets Helios (Helios-APC [BioLegend, Cat #137222, 1:50])]), Aiolos, and Ikaros Ix Permeabilization buffer and staining reactions were incubated for 1 hour at room temperature; protected from light. Subsequently, 30 μL of 1× Permeabilization buffer was added prior to centrifuging the cells and discarding the supernatant. Stained cells were resuspended in 30 μL of flow cytometry staining buffer (PBS+0.5% BSA) and analyzed using an Intellicyt Ique Plus flow cytometer.
Table B-1 lists the maximum observed degradation of the IKZF1 protein and IKZF2 protein as measured in the Human Regulatory Cell T Degradation assay. […]

[2] = target: T1, IKZF4 Eos (Homo sapiens, UniProt Q96SW2+Q9H2S9); assay: Human Regulatory T Cell Reprogramming Assay (IKZF4 Eos); type: cell-based; conditions: CD4+ CD127low CD25+ Treg cells, 12-13 days; for DC50: concentration reducing protein level by 50% vs DMSO; for Dmax: Regulatory T cell, human, read-out: Maximum Observed Degradation IKZF4 Eos
T1 construct: T cells were isolated from fresh healthy leukopaks; endogenous in cells; host or cells: FACS-sorted primary human CD4+ CD127low CD25+ Treg cells from healthy leukopaks
Protocol: Human CD4^+ T cells were isolated from fresh healthy leukopaks (Stemcell Technologies) using the RosetteSep Human CD4^+ T cell enrichment cocktail (Stemcell Technologies) and Ficoll density gradient centrifugation. Leukopaks were diluted with an equal volume of phosphate-buffered saline (PBS [Gibco]) supplemented with 2% fetal bovine serum (FBS, VWR Lifescience) and incubated with RosetteSep Human CD4^+ T cell enrichment cocktail for 20 minutes before layering on Ficoll-Paque Plus solution (GE Health Care). The cell-rich interface layer was harvested and washed twice with PBS supplemented with 2% FBS. Regulatory T cells were then isolated manually using the EasySep Human CD4 CD1271WCD25^+ Regulatory T cell isolation kit (Stemcell Technologies) according to the manufacturer's instructions. Cells were rested overnight in Roswell Park Memorial Institute (RPMI) 1640 media (Gibco) supplemented with 10% FBS, Pen/Strep (Gibco), MEM-NEAA (Gibco), and sodium pyruvate (Gibco) in a humidified incubator (37° C., 5% CO2). Cells were then stained for CD4 (clone: RPA-T4, Biolegend), CD25 (clone: 2A3, BD Biosciences), and CD127 (clone: hIL-7R-M21, BD Biosciences). CD4^+ CD127^lowCD25^+ cells were sorted on a BD FACS Aria Fusion sorter to a purity of 95% or greater. Sorted cells were immediately used or cryopreserved for downstream assays.
Fresh or cryopreserved FACS-sorted CD4^+ CD127^lowCD25^+ Treg cells were cultured at 25,000-50,000 cells/well of 96-well round bottom plates in RPMI 1640 media (Gibco) supplemented with 10% FBS, Pen/Strep (Gibco), MEM-NEAA (Gibco), and sodium pyruvate (Gibco). Cells were stimulated with Treg Xpander beads (Thermo Fisher) at cells-to-beads ratio of 1:4 in the presence of 500 U/mL recombinant human IL-2 (Proleukin). Compounds were added at titrated doses and cells were incubated at 37° C., 5% CO2 for 12-13 days. Recombinant human IL-2 and compound were replenished every 2-3 days during the entire culture duration. On day 12 or 13, cells were restimulated with phorbol 12-myristate 13-acetate (PMA) and ionomycin in the presence of the protein transport inhibitors brefeldin A and monensin (eBioscience Cell Stimulation Cocktail plus protein transport inhibitors, 500×, Catalog number 00-4975-93) before proceeding with flow cytometry staining and analysis.
For flow cytometry staining, cells were washed twice with flow cytometry staining buffer (Thermo Fisher) and incubated in Human Tru-stain Fc block (Biolegend) for 10 minutes before adding eFluor780 viability dye (Thermo Fisher) and surface marker antibody cocktail for 30 minutes at 4° C. Cells were then fixed and permeabilized by incubation with FoxP3 transcription factor staining buffer (Thermo Fisher) for 30 minutes at 4° C. as per the kit manufacturer's instructions. Cells were washed twice with the Perm/Wash buffer supplied in the kit as per the manufacturer's instructions and incubated overnight at 4° C. with an intracellular antibody cocktail comprised of antibodies specific for the transcription factors shown in Table C. Cells were washed twice with Perm/Wash buffer and resuspended in flow cytometry staining buffer (Thermo Fisher) prior to acquisition. Sample acquisition and analysis was performed using a BD LSRFortessa (BD Biosciences) flow cytometer. Single stain controls for each fluorochrome were prepared using UltraComp eBead Compensation Beads (Thermo Fisher). Data were analyzed using FlowJo version 10 and GraphPad Prism Software.
Table C-1 lists the maximum observed degradation of the IKZF2 protein and IKZF4 protein as measured in the Human Regulatory T Cell Reprogramming assay. The results in Table C-1 were rounded to two digits. In the Human Regulatory T Cell Reprogramming assay, a value of 100% indicated no detectable protein remaining or complete degradation of the protein; and a value of 0% indicated no detectable degradation of the protein by the test compound.

T1 sequence (Q9H2S9 whole entry): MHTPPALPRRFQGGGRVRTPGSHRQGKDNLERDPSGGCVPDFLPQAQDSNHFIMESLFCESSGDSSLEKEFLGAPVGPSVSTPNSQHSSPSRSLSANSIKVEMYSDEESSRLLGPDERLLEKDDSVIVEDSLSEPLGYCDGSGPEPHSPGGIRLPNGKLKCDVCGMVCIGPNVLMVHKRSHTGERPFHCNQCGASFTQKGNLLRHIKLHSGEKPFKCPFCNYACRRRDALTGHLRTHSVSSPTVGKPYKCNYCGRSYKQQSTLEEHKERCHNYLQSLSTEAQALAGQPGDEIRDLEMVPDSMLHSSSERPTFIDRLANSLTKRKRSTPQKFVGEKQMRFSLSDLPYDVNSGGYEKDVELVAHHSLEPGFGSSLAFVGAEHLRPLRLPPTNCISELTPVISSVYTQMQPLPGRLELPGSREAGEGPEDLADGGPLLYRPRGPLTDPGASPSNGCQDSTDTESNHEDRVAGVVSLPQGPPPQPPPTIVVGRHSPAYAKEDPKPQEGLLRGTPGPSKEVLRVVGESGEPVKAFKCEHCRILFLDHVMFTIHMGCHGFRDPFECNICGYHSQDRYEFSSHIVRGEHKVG
T1 sequence (Q96SW2 whole entry): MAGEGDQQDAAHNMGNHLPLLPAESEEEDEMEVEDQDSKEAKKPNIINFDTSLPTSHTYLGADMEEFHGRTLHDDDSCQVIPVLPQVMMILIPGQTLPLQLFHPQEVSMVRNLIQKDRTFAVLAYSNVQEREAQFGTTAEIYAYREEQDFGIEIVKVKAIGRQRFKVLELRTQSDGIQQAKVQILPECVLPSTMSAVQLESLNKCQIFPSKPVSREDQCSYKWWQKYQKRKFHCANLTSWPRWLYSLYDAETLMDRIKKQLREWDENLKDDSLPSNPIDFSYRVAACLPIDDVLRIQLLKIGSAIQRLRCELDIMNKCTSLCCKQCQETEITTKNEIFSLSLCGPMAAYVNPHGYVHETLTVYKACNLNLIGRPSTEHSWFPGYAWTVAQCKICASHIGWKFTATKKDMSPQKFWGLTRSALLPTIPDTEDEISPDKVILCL
T1 sequence (Q16531 whole entry partner): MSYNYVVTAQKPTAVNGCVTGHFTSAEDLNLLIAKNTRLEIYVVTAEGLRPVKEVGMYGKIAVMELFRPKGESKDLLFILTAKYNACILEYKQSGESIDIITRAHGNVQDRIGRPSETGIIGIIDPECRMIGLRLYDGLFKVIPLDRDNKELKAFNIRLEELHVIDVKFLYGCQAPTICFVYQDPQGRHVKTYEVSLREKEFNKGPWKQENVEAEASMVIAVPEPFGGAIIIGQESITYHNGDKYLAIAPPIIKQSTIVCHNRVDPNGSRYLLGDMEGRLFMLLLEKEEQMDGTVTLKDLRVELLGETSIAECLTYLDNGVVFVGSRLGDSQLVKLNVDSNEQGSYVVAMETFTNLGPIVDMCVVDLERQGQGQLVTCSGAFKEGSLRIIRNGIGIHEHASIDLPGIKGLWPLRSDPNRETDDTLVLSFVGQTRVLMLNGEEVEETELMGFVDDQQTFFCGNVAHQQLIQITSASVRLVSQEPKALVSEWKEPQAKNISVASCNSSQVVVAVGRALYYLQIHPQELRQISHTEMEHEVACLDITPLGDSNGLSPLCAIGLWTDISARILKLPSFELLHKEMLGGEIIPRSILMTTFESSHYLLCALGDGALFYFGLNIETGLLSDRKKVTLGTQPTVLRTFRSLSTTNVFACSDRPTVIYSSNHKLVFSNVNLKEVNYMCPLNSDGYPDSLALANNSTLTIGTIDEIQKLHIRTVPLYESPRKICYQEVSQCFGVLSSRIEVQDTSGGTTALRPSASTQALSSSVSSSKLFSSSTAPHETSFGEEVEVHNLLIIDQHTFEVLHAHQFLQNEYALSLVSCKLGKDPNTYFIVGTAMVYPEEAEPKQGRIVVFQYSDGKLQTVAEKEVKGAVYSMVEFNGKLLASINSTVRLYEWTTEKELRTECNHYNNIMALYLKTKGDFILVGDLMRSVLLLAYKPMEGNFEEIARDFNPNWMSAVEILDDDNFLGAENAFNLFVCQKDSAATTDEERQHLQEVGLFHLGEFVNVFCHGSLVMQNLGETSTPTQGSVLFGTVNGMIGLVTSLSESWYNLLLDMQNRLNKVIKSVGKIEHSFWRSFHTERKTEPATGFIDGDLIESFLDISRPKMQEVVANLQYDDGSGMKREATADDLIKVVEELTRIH
IKZF1 Ikaros, sequence (Q13422 whole entry): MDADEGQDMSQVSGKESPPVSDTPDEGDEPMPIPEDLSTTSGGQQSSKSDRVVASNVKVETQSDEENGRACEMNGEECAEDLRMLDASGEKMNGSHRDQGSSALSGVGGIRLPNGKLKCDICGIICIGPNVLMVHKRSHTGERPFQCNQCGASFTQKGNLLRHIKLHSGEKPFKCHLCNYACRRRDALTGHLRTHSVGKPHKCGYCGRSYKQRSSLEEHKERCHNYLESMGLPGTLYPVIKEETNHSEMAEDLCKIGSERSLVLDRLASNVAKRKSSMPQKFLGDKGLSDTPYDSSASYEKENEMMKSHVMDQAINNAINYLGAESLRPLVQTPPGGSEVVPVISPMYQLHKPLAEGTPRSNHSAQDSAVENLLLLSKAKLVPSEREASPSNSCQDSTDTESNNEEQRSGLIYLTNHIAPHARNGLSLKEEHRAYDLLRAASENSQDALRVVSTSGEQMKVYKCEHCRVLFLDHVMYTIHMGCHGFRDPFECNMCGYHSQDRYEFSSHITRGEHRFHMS
IKZF1 Ikaros, sequence (Q96SW2 whole entry): as the sequence (Q96SW2 whole entry) above
IKZF1 Ikaros, sequence (Q16531 whole entry partner): as the sequence (Q16531 whole entry partner) above

Row | Dmax [1] | DC50 [2] | Dmax [2] | Structure (SMILES)
1 | 19% | 0.1 nM | 92% | O=C1CCC(N2Cc3c(ccc(-c4cc(CN5CC(c6ccccc6)C5)ccn4)c3F)C2=O)C(=O)N1 (stereo not drawn) [Comparative Compound A, 3-(4-fluoro-1-oxo-5-(4-((3-phenylazetidin-1-yl)methyl)pyridin-2-yl)isoindolin-2-yl) piperidine-2,6-dione]
2 | 37% | 1 nM | 95% | Nc1nc(-c2ccc3c(c2)CN(C2CCC(=O)NC2=O)C3=O)ccc1CN1CC2(CCC2)C1 (stereo not drawn) [Comparative Compound B, 3-(5-(5-((2-azaspiro[3.3]heptan-2-yl)methyl)-6-aminopyridin-2-yl)-1-oxoisoindolin-2-yl) piperidine-2,6-dione]
3 | 49% | 3.4 nM | 65% | Nc1nc(-c2ccc3c(c2F)CN(C2CCC(=O)NC2=O)C3=O)ccc1CN1CC2(CCCOC2)C1 (stereo not drawn) [Example 1, 3-(5-(5-((6-oxa-2-azaspiro[3.5]nonan-2-yl)methyl)-6-aminopyridin-2-yl)-4-fluoro-1-oxoisoindolin-2-yl) piperidine-2,6-dione]
